Experimental data from patent US8653089B2, “Heterocyclic compounds and methods of use” (F. Hoffmann-La Roche AG, priority 2011, dated 2014).

test system: production of CD69 by B lymphocytes in human whole blood activated by crosslinking surface IgM; assay: CD69 human whole blood assay (Example 903), FACS; format: cell-based; settings: B lymphocytes activated with goat F(ab')2 anti-human IgM, read-out: CD69 Hu Blood FACS IC50
Description: There is good evidence that B-cells play a key role in the pathogenesis of autoimmune and/or inflammatory disease. Protein-based therapeutics that deplete B cells such as Rituxan are effective against autoantibody-driven inflammatory diseases such as rheumatoid arthritis (Rastetter et al. (2004) Annu Rev Med 55:477). CD69 is the early activation marker in leukocytes including T cells, thymocytes, B cells, NK cells, neutrophils, and eosinophils. The CD69 human whole blood assay (Example 903) determines the ability of compounds to inhibit the production of CD69 by B lymphocytes in human whole blood activated by crosslinking surface IgM with goat F(ab′)2 anti-human IgM.

| IC50 | Structure (SMILES) |
| --- | --- |
| 39.5 nM | CC(Nc1ncnc2[nH]cnc12)c1nc2ccc(F)c(C#N)c2n1-c1ccccc1 (stereo not drawn) [Example 189, 5-Fluoro-3-phenyl-2-[1-(9H-purin-6-ylamino)-ethyl]-3H-benzoimidazole-4-carbonitrile] |
| 78.9 nM | CC(Nc1ncnc2[nH]cnc12)c1nc2ccc(F)cc2n1-c1ccc(C#N)cc1 (stereo not drawn) [Example 248, 4-{6-Fluoro-2-[1-(9H-purin-6-ylamino)-ethyl]-benzoimidazol-1-yl}-benzonitrile] |

same assay, conditions: Homo sapiens, Lymphocyte, B lymphocytes activated with goat F(ab')2 anti-human IgM, read-out: CD69 Hu Blood FACS IC50

| Structure (SMILES) | IC50 |
| --- | --- |
| C[C@H](Nc1ncnc(N)c1C#N)c1nc2ccc(F)c(C#N)c2n1-c1cncc(F)c1 [Example 347, 2-[(S)-1-(6-Amino-5-cyano-pyrimidin-4-ylamino)-ethyl]-5-fluoro-3-(5-fluoro-pyridin-3-yl)-3H-benzoimidazole-4-carbonitrile] | 158 nM |
| C[C@H](Nc1ncnc(N)c1C#N)c1nc2ccc(F)cc2n1-c1cnn(C)c1 [Example 418, 4-amino-6-[[(1S)-1-[6-fluoro-1-(1-methylpyrazol-4-yl)benzimidazol-2-yl]ethyl]amino]pyrimidine-5-carbonitrile] | 107 nM |
| C[C@H](Nc1ncnc2[nH]cnc12)c1nc2ccc(F)cc2n1-c1ccnn1C [Example 417, N-[(1S)-1-[6-fluoro-1-(2-methylpyrazol-3-yl)benzimidazol-2-yl]ethyl]-9H-purin-6-amine] | 140 nM |
| C[C@H](Nc1ncnc(N)c1C#N)c1nc2ccc(F)c(C#N)c2n1-c1ccccn1 [Example 291, 2-[(S)-1-(6-Amino-5-cyano-pyrimidin-4-ylamino)-ethyl]-5-fluoro-3-pyridin-2-yl-3H-benzoimidazole-4-carbonitrile] | 97.2 nM |
| CC(Nc1ncnc2[nH]cnc12)c1nc2ccc(F)c(C(=O)N(C)C)c2n1-c1ccccc1 (stereo not drawn) [Example 204, 5-Fluoro-3-phenyl-2-[1-(9H-purin-6-ylamino)-ethyl]-3H-benzoimidazole-4-carboxylic acid dimethylamide] | 67.5 nM |
| C[C@H](Nc1ncnc2[nH]cnc12)c1nc2ccc(F)cc2n1[C@H]1C[C@@H](O)C1 [Example 390, 3-[6-fluoro-2-[(1S)-1-(9H-purin-6-ylamino)ethyl]benzimidazol-1-yl]cyclobutanol] | 146 nM |
| C[C@H](Nc1ncnc(N)c1C#N)c1nc2ccc(F)cc2n1-c1ccn(C)n1 [Example 402, 4-amino-6-[[(1S)-1-[6-fluoro-1-(1-methylpyrazol-3-yl)benzimidazol-2-yl]ethyl]amino]pyrimidine-5-carbonitrile] | 64.7 nM |
| C[C@H](Nc1ncnc2[nH]cnc12)c1nc2ccc(F)cc2n1C1CCCCC1 [Example 201, [(S)-1-(1-Cyclohexyl-6-fluoro-1H-benzoimidazol-2-yl)-ethyl]-(9H-purin-6-yl)-amine] | 118 nM |
| C[C@H](Nc1ncncc1C#N)c1nc2ccc(F)cc2n1-c1ccccc1 [Example 316, 4-[(S)-1-(6-Fluoro-1-phenyl-1H-benzoimidazol-2-yl)-ethylamino]-pyrimidine-5-carbonitrile] | 481 nM |
| OCC(Nc1ncnc2nc[nH]c12)c1nc2ccc(F)cc2n1-c1ccccc1 (stereo not drawn) [Example 224, 2-(6-Fluoro-1-phenyl-1H-benzoimidazol-2-yl)-2-(7H-purin-6-ylamino)-ethanol] | 129 nM |

Continued, values first:

| IC50 | Structure (SMILES) |
| --- | --- |
| 26.8 nM | C[C@H](Nc1ncnc2[nH]cnc12)c1nc2ccc(F)c(C(=O)N3CCOCC3)c2n1-c1ccccc1 [Example 273, {5-Fluoro-3-phenyl-2-[(S)-1-(9H-purin-6-ylamino)-ethyl]-3H-benzoimidazol-4-yl}-morpholin-4-yl-methanone] |
| 64.2 nM | CC(C)n1c([C@H](C)Nc2ncnc3[nH]cnc23)nc2ccc(F)c(-c3ccccn3)c21 [Example 409, N-[(1S)-1-[6-fluoro-1-isopropyl-7-(2-pyridyl)benzimidazol-2-yl]ethyl]-9H-purin-6-amine] |
| 27.5 nM | C[C@H](Nc1ncnc(N)c1C#N)c1nc2ccc(F)cc2n1-c1ccccn1 [Example 275, 4-Amino-6-[(S)-1-(6-fluoro-1-pyridin-2-yl-1H-benzoimidazol-2-yl)-ethylamino]-pyrimidine-5-carbonitrile] |
| 50.8 nM | CC(Nc1ncnc2[nH]cnc12)c1nc2ccc(F)cc2n1-c1ccccc1 (stereo not drawn) [Example 194, [1-(6-Fluoro-1-phenyl-1H-benzoimidazol-2-yl)-ethyl]-(9H-purin-6-yl)-amine] |
| 35.5 nM | C[C@H](Nc1ncnc(N)c1C#N)c1nc2cccc(C3CC3)c2n1-c1cccnc1 [Example 299, 4-Amino-6-[(S)-1-(7-cyclopropyl-1-pyridin-3-yl-1H-benzoimidazol-2-yl)-ethylamino]-pyrimidine-5-carbonitrile] |
| 25.4 nM | CC(Nc1ncnc2[nH]cnc12)c1nc2ccc(F)cc2n1-c1cncc(F)c1 (stereo not drawn) [Example 263, {1-[6-Fluoro-1-(5-fluoro-pyridin-3-yl)-1H-benzoimidazol-2-yl]-ethyl}-(9H-purin-6-yl)-amine] |
| 12.9 nM | C[C@H](Nc1ncnc(N)c1C#N)c1nc2ccc(F)c(C#N)c2n1-c1ccccc1 [Example 330, 2-[(S)-1-(6-Amino-5-cyano-pyrimidin-4-ylamino)-ethyl]-5-fluoro-3-phenyl-3H-benzoimidazole-4-carbonitrile] |
| 26.8 nM | C[C@H](Nc1ncnc2[nH]cnc12)c1nc2ccc(F)c(C3CC3)c2n1-c1ccccn1 [Example 274, [(S)-1-(7-Cyclopropyl-6-fluoro-1-pyridin-2-yl-1H-benzoimidazol-2-yl)-ethyl]-(9H-purin-6-yl)-amine] |
| 18 nM | C[C@H](Nc1ncnc(N)c1C#N)c1nc2ccc(F)cc2n1-c1cncc(F)c1 [Example 277, 4-Amino-6-{(S)-1-[6-fluoro-1-(5-fluoro-pyridin-3-yl)-1H-benzoimidazol-2-yl]-ethylamino}-pyrimidine-5-carbonitrile] |
| 34.1 nM | C[C@H](Nc1ncnc(N)c1C#N)c1nc2ccc(F)c(Br)c2n1-c1cccnc1 [Example 301, 4-Amino-6-[(S)-1-(7-bromo-6-fluoro-1-pyridin-3-yl-1H-benzoimidazol-2-yl)-ethylamino]-pyrimidine-5-carbonitrile] |

target: T1, p110 delta (Homo sapiens, UniProt O00329); assay: PI3K isoform inhibition assay (fluorescence polarization), p110 delta; format: biochemical; settings: p110 delta binding IC50, selected compounds from Table 1
T1 construct: purchased Upstate Group, Millipore; Dundee, UK
Protocol: PI3K enzymatic activity was assayed by measuring the amount of product phosphatidylinositol 3,4,5-phosphate (PIP3) formed from substrate 4,5 phosphatidylinositol 4,5-phosphate (PIP2) using a fluorescence polarization displacement assay. The decrease in fluorescence polarization of a fluorescent PIP3 probe is measured as it is displaced from a PIP3-binding protein GRP-1detector by PI3K-catalyzed product. Assays were conducted in 384-well black Proxiplates in the presence of 10 mM Tris (pH 7.5), 50 mM NaCl, 4 mM MgCl2, 5% glycerol, 25 μM ATP, 10 μM PIP2 (Echelon Biosciences), 0.05% 3-[(3-cholamidopropyl)dimethylammonio]-1-propanesulfonate, 1 mM dithiothreitol, and 2% DMSO. The kinase reactions were initiated by the addition of 40 ng/mL p110α/p85α, 300 ng/mL p110β/p85α, 40 ng/mL p110γ, or 40 ng/mL p110δ/p85α (Upstate Group, Millipore; Dundee, UK), and 10 μM PIP2 (Echelon Biosciences) to the wells. The reactions were stopped at timepoints that yielded a fixed change in fluorescence polarization consistent with initial rate conditions (typically 30 minutes), by the addition of 12.5 mM EDTA, 100 nM GRP-1 detector, and 5 nM tetramethylrhodamine-labeled PIP3 (TAMRA-PIP3; Echelon Biosciences). After 60 minutes of incubation at room temperature to allow equilibration of labeled and unlabeled PIP3 binding, the parallel and perpendicular components of the fluorescence emissions from each sample were measured at an excitation wavelength of 530 nm and an emission wavelength of 590 nm using an Envision fluorescent plate reader with a rhodamine filter (PerkinElmer Life and Analytical Sciences; Wellesley, Mass.). The assay is capable of detecting 0.1-2.0 μM PIP3 product. The IC50 values were obtained by fitting the dose-dependent inhibition data to a 4-parameter equation using Assay Explorer software (MDL, San Ramon, Calif.). […]
Recombinant PI3K p110 isoforms alpha, beta, and delta may be prepared and purified according to US 2008/0275067 from recombinant PI3K heterodimeric complexes consisting of a p110 catalytic subunit and a p85 regulatory subunit overexpressed using the BAC-TO-BAC® HT baculovirus expression system (GIBCO/BRL), and then purified for use in biochemical assays. The four Class I PI 3-kinases are cloned into baculovirus vectors as follows:
p110 delta: A FLAG™-tagged (Eastman Kodak Co., U.S. Pat. No. 4,703,004; U.S. Pat. No. 4,782,137; U.S. Pat. No. 4,851,341) version of human p110.delta (Chantry et al., J. Biol. Chem. (1997) 272:19236-41) is subcloned using standard recombinant DNA techniques into the BamHI-XbaI site of the insect cell expression vector pFastbac HTb (Life Technologies, Gaithersburg, Md.), such that the clone is in frame with the His tag of the vector.

T1 sequence (O00329 whole entry, canonical isoform): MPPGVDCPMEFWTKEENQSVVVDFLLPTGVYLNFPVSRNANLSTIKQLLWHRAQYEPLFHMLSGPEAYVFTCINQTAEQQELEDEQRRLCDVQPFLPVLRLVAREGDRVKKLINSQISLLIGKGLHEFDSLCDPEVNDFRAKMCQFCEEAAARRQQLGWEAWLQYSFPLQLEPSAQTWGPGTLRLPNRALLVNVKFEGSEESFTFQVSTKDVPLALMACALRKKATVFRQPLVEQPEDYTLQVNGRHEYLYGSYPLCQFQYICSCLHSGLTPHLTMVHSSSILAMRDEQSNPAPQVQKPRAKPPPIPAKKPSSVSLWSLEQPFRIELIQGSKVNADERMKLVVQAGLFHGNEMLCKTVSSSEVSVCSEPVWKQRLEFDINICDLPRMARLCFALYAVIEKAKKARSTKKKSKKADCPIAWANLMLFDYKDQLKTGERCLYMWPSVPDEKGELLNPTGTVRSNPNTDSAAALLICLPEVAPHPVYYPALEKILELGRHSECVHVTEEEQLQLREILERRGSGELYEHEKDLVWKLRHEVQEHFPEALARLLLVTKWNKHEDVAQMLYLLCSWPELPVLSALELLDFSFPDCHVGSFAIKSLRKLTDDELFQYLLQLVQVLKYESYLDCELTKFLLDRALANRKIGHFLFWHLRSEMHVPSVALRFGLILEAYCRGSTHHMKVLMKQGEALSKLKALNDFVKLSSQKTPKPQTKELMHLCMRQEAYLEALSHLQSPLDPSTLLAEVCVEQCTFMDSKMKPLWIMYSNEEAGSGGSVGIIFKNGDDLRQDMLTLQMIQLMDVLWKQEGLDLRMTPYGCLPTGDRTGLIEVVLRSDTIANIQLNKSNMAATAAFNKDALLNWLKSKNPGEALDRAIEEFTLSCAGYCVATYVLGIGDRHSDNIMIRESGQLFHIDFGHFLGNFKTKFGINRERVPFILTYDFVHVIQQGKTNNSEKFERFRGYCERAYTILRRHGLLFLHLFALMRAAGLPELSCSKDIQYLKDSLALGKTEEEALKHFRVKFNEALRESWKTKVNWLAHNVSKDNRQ
T1 sequence (P27986 whole entry partner, canonical isoform): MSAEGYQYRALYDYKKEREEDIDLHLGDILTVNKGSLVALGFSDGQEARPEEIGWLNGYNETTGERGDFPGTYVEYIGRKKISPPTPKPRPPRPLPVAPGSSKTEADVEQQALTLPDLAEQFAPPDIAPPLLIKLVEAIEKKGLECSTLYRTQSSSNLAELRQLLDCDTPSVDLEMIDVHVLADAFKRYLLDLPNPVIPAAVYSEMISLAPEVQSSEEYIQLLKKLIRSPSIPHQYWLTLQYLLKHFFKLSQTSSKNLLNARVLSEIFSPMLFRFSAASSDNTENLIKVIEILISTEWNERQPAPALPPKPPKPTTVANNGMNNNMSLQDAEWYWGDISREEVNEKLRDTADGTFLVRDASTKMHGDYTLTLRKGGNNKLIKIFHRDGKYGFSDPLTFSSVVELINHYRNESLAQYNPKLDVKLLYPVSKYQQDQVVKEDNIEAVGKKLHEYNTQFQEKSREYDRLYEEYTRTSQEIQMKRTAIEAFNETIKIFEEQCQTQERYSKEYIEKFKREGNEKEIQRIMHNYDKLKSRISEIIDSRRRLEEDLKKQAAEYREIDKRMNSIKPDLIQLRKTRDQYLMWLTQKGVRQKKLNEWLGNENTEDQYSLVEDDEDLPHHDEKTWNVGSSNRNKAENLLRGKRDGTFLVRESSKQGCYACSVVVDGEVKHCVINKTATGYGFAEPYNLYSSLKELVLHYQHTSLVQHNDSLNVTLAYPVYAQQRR

| IC50 | Structure (SMILES) |
| --- | --- |
| 278 nM | Cc1nn(Cc2nc3ccccc3n2-c2ccccc2)c2ncnc(N)c12 [Example 142, 3-methyl-1-((1-phenyl-1H-benzo[d]imidazol-2-yl)methyl)-1H-pyrazolo[3,4-d]pyrimidin-4-amine] |
| 302 nM | Nc1ncnc2c1ccn2Cc1nc2ccccc2n1-c1ccccc1 [Example 139, 7-((1-phenyl-1H-benzo[d]imidazol-2-yl)methyl)-7H-pyrrolo[2,3-d]pyrimidin-4-amine] |
